Earlier results in patent US9827197B2, “Diclofenac formulations and methods of use” (APR Applied Pharma Research s.a., priority 2005, dated 2017).

Key:
[1] = water at 25 degrees Celsius
[2] = commercially available sugar coated tablets

solubility in water [1] [g/100 ml]	terminal half life [2]	Compound
22		OC[C@@H](O)[C@@H](O)[C@H](O)[C@H](O)CO [mannitol]
	about 1.9 hours	O=C(O)Cc1ccccc1Nc1c(Cl)cccc1Cl [Diclofenac potassium]
